Results reported in PubChem BioAssay AID2060907 (Molecular Pharmacology Branch, DTP, NCI, 2025).

Tested on: 388556-164-R-J1-PDC complex spheroid viability
Assay: Anticancer human tumor 388556-164-R-J1-PDC patient-derived colon adenocarcinoma cell line growth inhibition [RAS]
Conditions: for IC50: curve of first compound; for viability, T/C: stronger effect = lower value
From the text: RAS pathway inhibitors in Combinations in Complex Spheroids
A high-throughput screen of multi-cell type tumor spheroids was designed to identify active combinations of RAS pathway inhibitors and targeted small molecules. Complex spheroids include a stromal component modeled by human endothelial cells (HUVEC) and fibroblasts modeled by human mesenchymal stem cells (MSCs). The concentration ranges selected for each drug and investigational agent were based upon clinically achievable concentrations if the clinical Cmax of the agent was known.
Compounds. The drugs and investigational agents: abemaciclib (NSC768073), cobimetinib (NSC768068), divarasib (GDC6063, NSC841802), docetaxel (NSC628503), GDC-1971 (RLY-1971, NSC841576), gemcitabine (NSC613327), inavolisib (NSC800729), ipatasertib (NSC767898), KB-0742 (NSC834161), MRTX-1133 (NSC836407), osimertinib (NSC779217), RMC-4630 (NSC839698), RMC-6236 (NSC851965), RMC-6291 (NSC852671), Ro-3306 (NSC812927), sapanisertib (NSC764658), SN-38 (NSC673596), staurosporine (NSC755774), SY5609 (NSC837396), and tovorafenib (DAY101, NSC766906), were obtained from the National Cancer Institute (NCI) Developmental Therapeutics Program Chemical Repository. The FDA-approved anticancer drug set is available from the NCI Developmental Therapeutics Program. […] The stock solutions were prepared in dimethyl sulfoxide (DMSO, Sigma-Aldrich, St. Louis, MO, cat. D2650) at 800-fold the tested concentration and stored at -70 degrees C prior to their use. All drugs and investigational agents were tested over a range starting from a high concentration at or near the clinical Cmax and decreasing in half-log increments. If the clinical Cmax for an agent had not been determined, the highest concentration tested was 10 microM.
Cell Culture. All cells were maintained in an incubator at 37 degrees C and 5% CO2 with 95% humidity. The PDC lines were cultured according to standard operating procedures established by the NCI PDMR. All PDCs were thawed and cultured in Matrigel-coated flasks prepared with a working solution of 1X Ham's F-12 nutrient mix, without supplementation (Invitrogen, Waltham, MA, cat. 11765054), 100 U/mL penicillin-streptomycin (Invitrogen, cat. 15140122), and 2.5% Matrigel (Corning Inc., Corning, NY, cat. 354248) for the first three passages. The 362531-283-R-J2-PDC and 782815-120-R-J1-PDC lines were cultured in 6C/Colon 1B media, which includes advanced DMEM/F-12 (Thermo Fisher Scientific, cat. 12634028), 10 mM HEPES (Thermo Fisher Scientific, cat. 15630080), 1X GlutaMAX supplement (Thermo Fisher Scientific, cat. 35050061), 0.1 mg/mL primocin (InvivoGen, San Diego, CA, cat. ant-pm-2), 10% defined fetal bovine serum, heat inactivated (HyClone Laboratories Inc., Logan, UT, cat. SH30070.03HI), 50% L-WRN conditioned media (ATCC, cat. CRL-3276), 1.25 mM N-Acetyl-L-cysteine (Sigma-Aldrich, cat. A9165), 10 mM nicotinamide (Sigma-Aldrich, cat. N0636), 1X B-27 supplement (Thermo Fisher Scientific, cat. 17504044), 1X N-2 supplement (Thermo Fisher Scientific, cat. 17502048), 50 ng/mL human EGF (Thermo Fisher Scientific, cat. PHG0311), and 10 microM Y-27632 dihydrochloride (Tocris Bioscience, cat. 1254). The K12877-001-R-J1-PDC line was cultured in 6I media, which includes all 6C/Colon 1B media plus 10 ng/mL human FGF-10 (PeproTech, cat. 100-26), 1 ng/mL human FGF-2 (PeproTech, cat. 100-18B), 1 µM prostaglandin E2 (Tocris Bioscience, cat. 2296), […] hydrocortisone (Sigma-Aldrich, cat. H4001), and […] bovine insulin (Sigma-Aldrich, cat. I6634). The K86415-001-R-J1-PDC line was cultured in 6D media, which includes all 6C/Colon 1B media components minus the L-WRN conditioned media. The 485176-168-R4-J1-PDC was cultured in PANC media, which includes all 6C/Colon 1B media plus 100 ng/mL human FGF-10 (PeproTech, cat. 100-26), 500 nM SB-431542 (Selleckchem, cat. S1067), and 10 nM gastrin (Tocris Bioscience, cat. 3006). […]

[1] = second compound 0.0316 µM, first compound 0.0316 µM
[2] = second compound 0.0316 µM, first compound 0.1 µM
[3] = second compound 0.0316 µM, first compound 0.316 µM
[4] = second compound 0.0316 µM, first compound 1 µM
[5] = second compound 0.0316 µM, first compound 3.16 µM
[6] = second compound 0.0316 µM, first compound 10 µM
[7] = second compound 0.1 µM, first compound 0.0316 µM
[8] = second compound 0.1 µM, first compound 0.1 µM
[9] = second compound 0.1 µM, first compound 0.316 µM
[10] = second compound 0.1 µM, first compound 1 µM
[11] = second compound 0.1 µM, first compound 3.16 µM
[12] = second compound 0.1 µM, first compound 10 µM
[13] = second compound 0.316 µM, first compound 0.0316 µM
[14] = second compound 0.316 µM, first compound 0.1 µM
[15] = second compound 0.316 µM, first compound 0.316 µM
[16] = second compound 0.316 µM, first compound 1 µM
[17] = second compound 0.316 µM, first compound 3.16 µM
[18] = second compound 0.316 µM, first compound 10 µM
[19] = second compound 1 µM, first compound 0.0316 µM
[20] = second compound 1 µM, first compound 0.1 µM
[21] = second compound 1 µM, first compound 0.316 µM
[22] = second compound 1 µM, first compound 1 µM
[23] = second compound 1 µM, first compound 3.16 µM
[24] = second compound 1 µM, first compound 10 µM
[25] = second compound 3.16 µM, first compound 0.0316 µM
[26] = second compound 3.16 µM, first compound 0.1 µM
[27] = second compound 3.16 µM, first compound 0.316 µM
[28] = second compound 3.16 µM, first compound 1 µM
[29] = second compound 3.16 µM, first compound 3.16 µM
[30] = second compound 3.16 µM, first compound 10 µM
[31] = second compound 10 µM, first compound 0.0316 µM
[32] = second compound 10 µM, first compound 0.1 µM
[33] = second compound 10 µM, first compound 0.316 µM
[34] = second compound 10 µM, first compound 1 µM
[35] = second compound 10 µM, first compound 3.16 µM
[36] = second compound 10 µM, first compound 10 µM
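Further: spheroids exposed to compound for 7 days before readout.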
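Wherever viability, T/C is given: 100% = DMSO vehicle control luminescence.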

## CC1(O)CCCC1n1c(=O)c(C(F)F)cc2cnc(NC3CCN(S(C)(=O)=O)CC3)nc21 (stereo unspecified) + C#Cc1c(F)ccc2cc(O)cc(-c3ncc4c(N5CC6CCC(C5)N6)nc(OCC56CCCN5CC(F)C6)nc4c3F)c12
Second compound 0.0316 µM
  IC50: > 10 µM
Second compound 0.1 µM
  IC50: > 10 µM
Second compound 0.316 µM
  IC50: > 10 µM
Second compound 1 µM
  IC50: 9.42 µM
Second compound 3.16 µM
  IC50: 8.92 µM
Second compound 10 µM
  IC50: 5.28 µM
[1]
  viability, T/C: 99.9%
[2]
  viability, T/C: 101%
[3]
  viability, T/C: 97.3%
[4]
  viability, T/C: 108%
[5]
  viability, T/C: 111%
[6]
  viability, T/C: 76.7%
[7]
  viability, T/C: 108%
[8]
  viability, T/C: 103%
[9]
  viability, T/C: 99.4%
[10]
  viability, T/C: 97.3%
[11]
  viability, T/C: 104%
[12]
  viability, T/C: 77.2%
[13]
  viability, T/C: 98.5%
[14]
  viability, T/C: 108%
[15]
  viability, T/C: 89.4%
[16]
  viability, T/C: 107%
[17]
  viability, T/C: 112%
[18]
  viability, T/C: 62.4%
[19]
  viability, T/C: 92.5%
[20]
  viability, T/C: 99.1%
[21]
  viability, T/C: 77.4%
[22]
  viability, T/C: 94.8%
[23]
  viability, T/C: 97.4%
[24]
  viability, T/C: 47.6%
[25]
  viability, T/C: 86.2%
[26]
  viability, T/C: 78.6%
[27]
  viability, T/C: 78.9%
[28]
  viability, T/C: 82.1%
[29]
  viability, T/C: 87.9%
[30]
  viability, T/C: 46.6%
[31]
  viability, T/C: 69.8%
[32]
  viability, T/C: 72.6%
[33]
  viability, T/C: 74.8%
[34]
  viability, T/C: 76.2%
[35]
  viability, T/C: 56.3%
[36]
  viability, T/C: 42.1%

## CCN1CCN(Cc2ccc(Nc3ncc(F)c(-c4cc(F)c5nc(C)n(C(C)C)c5c4)n3)nc2)CC1 + C#Cc1c(F)ccc2cc(O)cc(-c3ncc4c(N5CC6CCC(C5)N6)nc(OCC56CCCN5CC(F)C6)nc4c3F)c12
Second compound 0.0316 µM
  IC50: > 1 µM
Second compound 0.1 µM
  IC50: > 1 µM
Second compound 0.316 µM
  IC50: > 1 µM
Second compound 1 µM
  IC50: > 1 µM
Second compound 3.16 µM
  IC50: > 1 µM
Second compound 10 µM
  IC50: 0.208 µM
Second compound 0.0316 µM, first compound 0.00316 µM
  viability, T/C: 106%
Second compound 0.0316 µM, first compound 0.01 µM
  viability, T/C: 106%
[1]
  viability, T/C: 106%
[2]
  viability, T/C: 103%
[3]
  viability, T/C: 92.3%
[4]
  viability, T/C: 103%
Second compound 0.1 µM, first compound 0.00316 µM
  viability, T/C: 110%
Second compound 0.1 µM, first compound 0.01 µM
  viability, T/C: 100%
[7]
  viability, T/C: 94.8%
[8]
  viability, T/C: 89.2%
[9]
  viability, T/C: 91.6%
[10]
  viability, T/C: 99.5%
Second compound 0.316 µM, first compound 0.00316 µM
  viability, T/C: 100%
Second compound 0.316 µM, first compound 0.01 µM
  viability, T/C: 99.2%
[13]
  viability, T/C: 81.1%
[14]
  viability, T/C: 88%
[15]
  viability, T/C: 93.3%
[16]
  viability, T/C: 77.4%
Second compound 1 µM, first compound 0.00316 µM
  viability, T/C: 92.5%
Second compound 1 µM, first compound 0.01 µM
  viability, T/C: 96.3%
[19]
  viability, T/C: 73.2%
[20]
  viability, T/C: 82.5%
[21]
  viability, T/C: 85.6%
[22]
  viability, T/C: 61.6%
Second compound 3.16 µM, first compound 0.00316 µM
  viability, T/C: 78.3%
Second compound 3.16 µM, first compound 0.01 µM
  viability, T/C: 73.9%
[25]
  viability, T/C: 76.3%
[26]
  viability, T/C: 74.3%
[27]
  viability, T/C: 71%
[28]
  viability, T/C: 54.9%
Second compound 10 µM, first compound 0.00316 µM
  viability, T/C: 76.8%
Second compound 10 µM, first compound 0.01 µM
  viability, T/C: 67.8%
[31]
  viability, T/C: 72.7%
[32]
  viability, T/C: 57.7%
[33]
  viability, T/C: 45.5%
[34]
  viability, T/C: 37.4%

## C[C@@H](NC(=O)c1ncnc(N)c1Cl)c1ncc(C(=O)Nc2cc(C(F)(F)F)c(Cl)cn2)s1 + C#Cc1c(F)ccc2cc(O)cc(-c3ncc4c(N5CC6CCC(C5)N6)nc(OCC56CCCN5CC(F)C6)nc4c3F)c12
Second compound 0.0316 µM
  IC50: > 10 µM
Second compound 0.1 µM
  IC50: > 10 µM
Second compound 0.316 µM
  IC50: > 10 µM
Second compound 1 µM
  IC50: > 10 µM
Second compound 3.16 µM
  IC50: > 10 µM
Second compound 10 µM
  IC50: > 10 µM
[1]
  viability, T/C: 112%
[2]
  viability, T/C: 124%
[3]
  viability, T/C: 117%
[4]
  viability, T/C: 116%
[5]
  viability, T/C: 116%
[6]
  viability, T/C: 111%
[7]
  viability, T/C: 114%
[8]
  viability, T/C: 112%
[9]
  viability, T/C: 120%
[10]
  viability, T/C: 113%
[11]
  viability, T/C: 122%
[12]
  viability, T/C: 108%
[13]
  viability, T/C: 113%
[14]
  viability, T/C: 115%
[15]
  viability, T/C: 101%
[16]
  viability, T/C: 117%
[17]
  viability, T/C: 112%
[18]
  viability, T/C: 77.1%
[19]
  viability, T/C: 105%
[20]
  viability, T/C: 104%
[21]
  viability, T/C: 98.2%
[22]
  viability, T/C: 111%
[23]
  viability, T/C: 108%
[24]
  viability, T/C: 79.2%
[25]
  viability, T/C: 103%
[26]
  viability, T/C: 84%
[27]
  viability, T/C: 84%
[28]
  viability, T/C: 105%
[29]
  viability, T/C: 96.5%
[30]
  viability, T/C: 70%
[31]
  viability, T/C: 74%
[32]
  viability, T/C: 80.4%
[33]
  viability, T/C: 72.8%
[34]
  viability, T/C: 96%
[35]
  viability, T/C: 63.9%
[36]
  viability, T/C: 74.2%
